# Measurements published in US9999222B2, “Herbicidal combination comprising azines” (BASF SE, priority 2014, dated 2018).
# Where two headings read alike, the source gives them in different places.
# What was measured:
# Assay in all cases: Greenhouse test, pre-emergence treatment
# IPOHE = type: in vivo, Ipomoea hederacea; details: Ipomoea hederacea, 480 h
# From the text: (§1) The culture containers used were plastic flowerpots containing loamy sand with approximately 3.0% of humus as the substrate. The seeds of the test plants were sown separately for each species.
# (§2) For the pre-emergence treatment, the active ingredients, which had been suspended or emulsified in water, were applied directly after sowing by means of finely distributing nozzles. The containers were irrigated gently to promote germination and growth and subsequently covered with transparent plastic hoods until the plants had rooted. This cover caused uniform germination of the test plants, unless this had been impaired by the active ingredients.
# (§3) Depending on the species, the plants were kept at 10-25° C. or 20-35° C., respectively.
# (§4) The test period extended over 2 to 4 weeks. During this time, the plants were tended, and their response to the individual treatments was evaluated.
# (§5) Evaluation was carried out using a scale from 0 to 100. 100 means no emergence of the plants, or complete destruction of at least the aerial moieties, and 0 means no damage, or normal course of growth. A moderate herbicidal activity is given at values of at least 60, a good herbicidal activity is given at values of at least 70, and a very good herbicidal activity is given at values of at least 85.
# (§6) The respective stated components a and b, and if appropriate, c were formulated as a 10% by weight strength emulsion concentrate and, with addition of the amount of solvent system, introduced into the spray liquor used for applying the active compound.
# (§7) In the examples, the solvent used was water.
# (§8) In the examples below, using the method of S. R. Colby (1967) “Calculating synergistic and antagonistic responses of herbicide combinations”, Weeds 15, p. 22ff., the value E, which is expected if the activity of the individual active compounds is only additive, was calculated. E=X+Y−(X·Y/100) where • X=percent activity using active compound a at an application rate A; • Y=percent activity using active compound b at an application rate B; • E=expected activity (in %) by a+b at application rates A+B.
# (§9) If the value found experimentally is higher than the value E calculated according to Colby, a synergistic effect is present.
# ANTAR = type: in vivo; details: Anthemis arvensis, 480 h, 20 DAT, read-out: observed % activity
# From the text: as §1, §2, §3, §4, §5, §6, §7, §8, §9
# COMBE = type: in vivo, Commelina benghalensis; details: Commelina benghalensis, pre-emergence, 480 h
# From the text: as §1, §2, §3, §4, §5, §6, §7, §8, §9
# SIDRH = type: in vivo, Sida rhombifolia; details: Sida rhombifolia, pre-emergence, 480 h
# From the text: as §1, §2, §3, §4, §5, §6, §7, §8, §9
# KCHSC = type: in vivo, Kochia scoparia; details: Bassia scoparia, pre-emergence, 480 h, pre-emergence
# From the text: as §1, §2, §3, §4, §5, §6, §7, §8, §9
# POLCO = type: in vivo, Polygonum convolvulus; details: Fallopia convolvulus, pre-emergence, 480 h; for inhibition at 50 g/ha: use rate 50 g ai/ha
# From the text: as §1, §2, §3, §4, §5, §6, §7, §8, §9
# CENCY = type: in vivo; details: 480 h, individual, read-out: observed % activity 20 DAT
# LOLMU = type: in vivo, Lolium multiflorum; details: Lolium multiflorum, pre-emergence, 480 h, pre-emergence, read-out: observed % activity 20 DAT
# From the text: as §1, §2, §3, §4, §5, §6, §7, §8, §9
# GERPU = type: in vivo, Geranium pusillum; details: Geranium pusillum, pre-emergence, 480 h
# From the text: as §1, §2, §3, §4, §5, §6, §7, §8, §9
# EPHHL = type: in vivo, Euphorbia heterophylla; details: Euphorbia heterophylla, pre-emergence, 480 h
# From the text: as §1, §2, §3, §4, §5, §6, §7, §8, §9
# ABUTH = type: in vivo, Abutilon theophrasti; details: Abutilon theophrasti, 480 h
# From the text: as §1, §2, §3, §4, §5, §6, §7, §8, §9
# ALOMY = type: in vivo, Alopecurus myosuroides; details: Alopecurus myosuroides, pre-emergence, 480 h, pre-emergence, read-out: observed % activity 20 DAT; for inhibition at 50 g/ha: use rate 50 g ai/ha; for inhibition at 100 g/ha: use rate 100 g ai/ha
# From the text: as §1, §2, §3, §4, §5, §6, §7, §8, §9
# ECHCG = type: in vivo, Echinocloa crus-galli; details: Echinochloa crus-galli, 480 h, ECHCG, use rate 50 g ai/ha, 20 DAT, read-out: observed % activity 20 DAT
# From the text: as §1, §2, §3, §4, §5, §6, §7, §8, §9
# APESV = type: in vivo, Apera spica-venti; details: Apera spica-venti, 480 h, read-out: observed % activity 20 DAT
# From the text: as §1, §2, §3, §4, §5, §6, §7, §8, §9
# GALAP = type: in vivo, Galium aparine; details: Galium aparine, pre-emergence, 480 h
# From the text: as §1, §2, §3, §4, §5, §6, §7, §8, §9
# [1] = 20 g ai/ha, 20 DAT, read-out: observed % activity
# [2] = 40 g ai/ha, 20 DAT, read-out: observed % activity
# [3] = read-out: observed % activity 20 DAT
# [4] = use rate 100 g ai/ha, read-out: observed % activity 20 DAT
# [5] = 500 g ai/ha, 20 DAT, read-out: observed % activity
# [6] = 250 g ai/ha, 20 DAT, read-out: observed % activity
smiles,measurement,setting,value
"COc1c(Cl)ccc(Cl)c1C(=O)O [DICAMBA, dicamba]",inhibition at 35 g/ha,"IPOHE; IPOHE, individual, use rate 35 g ai/ha, read-out: observed % activity 20 DAT",40%
same,inhibition at 70 g/ha,"IPOHE; IPOHE, individual, use rate 70 g ai/ha, read-out: observed % activity 20 DAT",40%
same,inhibition at 20 g/ha,ANTAR; 20 g ai/ha,30%
same,inhibition at 40 g/ha,ANTAR; 40 g ai/ha,30%
same,inhibition at 20 g/ha,COMBE; [1],45%
same,inhibition at 40 g/ha,COMBE; [2],65%
same,inhibition at 70 g/ha,"COMBE; COMBE, individual, use rate 70 g ai/ha, read-out: observed % activity 20 DAT",50%
same,inhibition at 35 g/ha,COMBE; [3],15%
same,inhibition at 20 g/ha,SIDRH; [1],45%
same,inhibition at 40 g/ha,SIDRH; [2],80%
same,inhibition at 35 g/ha,"SIDRH; SIDRH, individual, use rate 35 g ai/ha, read-out: observed % activity 20 DAT",20%
same,inhibition at 70 g/ha,SIDRH; [3],15%
same,inhibition at 100 g/ha,KCHSC; [4],90%
same,inhibition at 35 g/ha,KCHSC; [3],75%
same,inhibition at 50 g/ha,KCHSC; [3],85%
same,inhibition at 70 g/ha,KCHSC; [3],75%
same,inhibition at 20 g/ha,POLCO; [1],35%
same,inhibition at 40 g/ha,POLCO; [2],90%
same,inhibition at 50 g/ha,"POLCO; POLCO, 20 DAT, read-out: observed % activity 20 DAT",40%
same,inhibition at 50 g/ha,POLCO; [3],40%
same,inhibition at 100 g/ha,POLCO; [4],60%
same,inhibition at 35 g/ha,CENCY; use rate 35 g ai/ha,0%
same,inhibition at 70 g/ha,CENCY; use rate 70 g ai/ha,30%
same,inhibition at 50 g/ha,"LOLMU; LOLMU, use rate 50 g ai/ha, 20 DAT",40%
same,inhibition at 100 g/ha,LOLMU,45%
same,inhibition at 20 g/ha,GERPU; [1],20%
same,inhibition at 40 g/ha,GERPU; [2],85%
same,inhibition at 35 g/ha,"GERPU; GERPU, individual, use rate 35 g ai/ha, read-out: observed % activity 20 DAT",40%
same,inhibition at 35 g/ha,EPHHL; [3],20%
same,inhibition at 20 g/ha,ABUTH; [1],60%
same,inhibition at 40 g/ha,ABUTH; [2],80%
same,inhibition at 35 g/ha,"ABUTH; ABUTH, individual, use rate 35 g ai/ha, read-out: observed % activity 20 DAT",0%
same,inhibition at 70 g/ha,"ABUTH; ABUTH, individual, use rate 70 g ai/ha, read-out: observed % activity 20 DAT",20%
same,inhibition at 50 g/ha,"ALOMY; ALOMY, 20 DAT",20%
same,inhibition at 100 g/ha,"ALOMY; ALOMY, 20 DAT",40%
same,inhibition at 50 g/ha,ALOMY,20%
same,inhibition at 100 g/ha,ALOMY,40%
same,inhibition at 50 g/ha,ECHCG,0%
same,inhibition at 100 g/ha,APESV,35%
Cc1ccc(NC(=O)N(C)C)cc1Cl [chlorotoluron],inhibition at 500 g/ha,IPOHE; [5],0%
same,inhibition at 250 g/ha,"IPOHE; IPOHE, individual, use rate 250 g ai/ha, read-out: observed % activity 20 DAT",0%
same,inhibition at 250 g/ha,ANTAR; 250 g ai/ha,45%
same,inhibition at 500 g/ha,ANTAR; 500 g ai/ha,45%
same,inhibition at 250 g/ha,COMBE; [6],20%
same,inhibition at 125 g/ha,"COMBE; COMBE, individual, use rate 125 g ai/ha, read-out: observed % activity 20 DAT",0%
same,inhibition at 250 g/ha,"COMBE; COMBE, individual, use rate 250 g ai/ha, read-out: observed % activity 20 DAT",0%
same,inhibition at 500 g/ha,GALAP; [5],50%
same,inhibition at 125 g/ha,"GALAP; GALAP, individual, use rate 125 g ai/ha, read-out: observed % activity 20 DAT",25%
same,inhibition at 250 g/ha,"GALAP; GALAP, individual, use rate 250 g ai/ha, read-out: observed % activity 20 DAT",30%
same,inhibition at 250 g/ha,SIDRH; [6],0%
same,inhibition at 500 g/ha,SIDRH; [5],0%
same,inhibition at 250 g/ha,KCHSC; [6],20%
same,inhibition at 500 g/ha,KCHSC; [5],50%
same,inhibition at 125 g/ha,"KCHSC; KCHSC, individual, use rate 125 g ai/ha, read-out: observed % activity 20 DAT",15%
same,inhibition at 250 g/ha,POLCO; [6],0%
same,inhibition at 500 g/ha,POLCO; [5],20%
same,inhibition at 250 g/ha,"POLCO; POLCO, individual, use rate 250 g ai/ha, read-out: observed % activity 20 DAT",0%
same,inhibition at 125 g/ha,CENCY; use rate 125 g ai/ha,20%
same,inhibition at 250 g/ha,CENCY; use rate 250 g ai/ha,0%
same,inhibition at 250 g/ha,GERPU; [6],25%
same,inhibition at 500 g/ha,GERPU; [5],20%
same,inhibition at 125 g/ha,"GERPU; GERPU, individual, use rate 125 g ai/ha, read-out: observed % activity 20 DAT",25%
same,inhibition at 250 g/ha,"GERPU; GERPU, individual, use rate 250 g ai/ha, read-out: observed % activity 20 DAT",25%
same,inhibition at 250 g/ha,EPHHL; [6],0%
same,inhibition at 250 g/ha,"EPHHL; EPHHL, individual, use rate 250 g ai/ha, read-out: observed % activity 20 DAT",15%
same,inhibition at 250 g/ha,ABUTH; [6],0%
same,inhibition at 500 g/ha,ABUTH; [5],0%
same,inhibition at 125 g/ha,"ABUTH; ABUTH, individual, use rate 125 g ai/ha, read-out: observed % activity 20 DAT",0%
same,inhibition at 250 g/ha,"ABUTH; ABUTH, individual, use rate 250 g ai/ha, read-out: observed % activity 20 DAT",0%
